In the NIST ThermoML archive (doi:10.1016/j.jct.2014.01.012):

Test: refractive index (Na D-line) (dimensionless); xn = mol fraction of the nth substance listed
Conditions: 101 kPa, Liquid

CCCCCCn1cc[n+](C)c1.F[P-](F)(F)(F)(F)F [1-hexyl-3-methylimidazolium hexafluorophosphate] + CCCCOC(C)=O
refractive index, Standard Abbe refractometry
Conditions | 293.15 K | 298.15 K | 303.15 K | 308.15 K | 313.15 K | 318.15 K | 323.15 K
x1 = 0.0956 | 1.40012 | 1.39835 | 1.39654 | 1.39469 | 1.39293 | 1.39102 | 1.38925
x1 = 0.1919 | 1.40555 | 1.40397 | 1.40209 | 1.40028 | 1.39856 | 1.39677 | 1.39495
x1 = 0.273 | 1.40899 | 1.40746 | 1.40564 | 1.40392 | 1.40223 | 1.40049 | 1.39879
x1 = 0.3698 | 1.41222 | 1.41064 | 1.40899 | 1.40735 | 1.40568 | 1.40401 | 1.40239
x1 = 0.4639 | 1.41432 | 1.41299 | 1.41138 | 1.40987 | 1.40837 | 1.40682 | 1.40529
x1 = 0.5701 | 1.41616 | 1.41482 | 1.41349 | 1.41215 | 1.41074 | 1.40945 | 1.40808
x1 = 0.6787 | 1.41768 | 1.41633 | 1.41519 | 1.41385 | 1.41265 | 1.41139 | 1.41024
x1 = 0.7746 | 1.41841 | 1.41727 | 1.41623 | 1.41512 | 1.41392 | 1.41269 | 1.41151
x1 = 0.8707 | 1.41937 | 1.41819 | 1.41713 | 1.41606 | 1.41477 | 1.41373 | 1.41268
x1 = 0.9354 | 1.41972 | 1.41876 | 1.41773 | 1.41651 | 1.41522 | 1.41386 | 1.41261
x1 = 1 | 1.42064 | 1.41935 | 1.41806 | 1.41676 | 1.41547 | 1.41417 | 1.41288

CCCCCCn1cc[n+](C)c1.F[P-](F)(F)(F)(F)F [1-hexyl-3-methylimidazolium hexafluorophosphate] + CCOC(C)=O
refractive index
Conditions | 293.15 K | 298.15 K | 303.15 K | 308.15 K | 313.15 K | 318.15 K | 323.15 K
x1 = 0.09053 | 1.38737 | 1.38598 | 1.38515 | 1.38415 | 1.38344 | 1.38227 | 1.38202
x1 = 0.1751 | 1.39825 | 1.39706 | 1.39611 | 1.39519 | 1.39414 | 1.39389 | 1.39323
x1 = 0.2748 | 1.40432 | 1.40351 | 1.402 | 1.40105 | 1.40023 | 1.39983 | 1.3989
x1 = 0.3638 | 1.40809 | 1.40694 | 1.40594 | 1.40487 | 1.40397 | 1.40319 | 1.40308
x1 = 0.4747 | 1.41069 | 1.40989 | 1.40899 | 1.40784 | 1.40699 | 1.40607 | 1.40548
x1 = 0.5959 | 1.41247 | 1.41194 | 1.41159 | 1.41107 | 1.40998 | 1.4091 | 1.4082
x1 = 0.6988 | 1.41456 | 1.41432 | 1.41357 | 1.41273 | 1.41182 | 1.41087 | 1.40995
x1 = 0.7782 | 1.41641 | 1.41609 | 1.41526 | 1.41451 | 1.41389 | 1.41215 | 1.41181
x1 = 0.8784 | 1.41817 | 1.41813 | 1.41735 | 1.41622 | 1.41498 | 1.41315 | 1.41252
x1 = 0.9562 | 1.42009 | 1.41886 | 1.41756 | 1.41629 | 1.41507 | 1.41377 | 1.41258
x1 = 1 | 1.42064 | 1.41935 | 1.41806 | 1.41676 | 1.41547 | 1.41417 | 1.41288

CCCCCCCC[n+]1ccn(C)c1.F[P-](F)(F)(F)(F)F [1-octyl-3-methylimidazolium hexafluorophosphate] + CCCCOC(C)=O
refractive index
Conditions | x1 = 0.1078 | x1 = 0.2016 | x1 = 0.3056 | x1 = 0.3855 | x1 = 0.4815 | x1 = 0.5918 | x1 = 0.6857 | x1 = 0.7784 | x1 = 0.8946 | x1 = 1
293.15 K | 1.40113 | 1.40658 | 1.41215 | 1.41536 | 1.41829 | 1.42036 | 1.42188 | 1.42339 | 1.42502 | 1.42649
298.15 K | 1.39916 | 1.40486 | 1.41053 | 1.41402 | 1.41692 | 1.41924 | 1.42067 | 1.42219 | 1.42373 | 1.42512
303.15 K | 1.39682 | 1.40307 | 1.40886 | 1.41241 | 1.41546 | 1.41801 | 1.41931 | 1.42073 | 1.42217 | 1.42376
308.15 K | 1.39502 | 1.40132 | 1.40721 | 1.41099 | 1.41402 | 1.41668 | 1.41801 | 1.41955 | 1.42089 | 1.4224
313.15 K | 1.39308 | 1.39963 | 1.40556 | 1.40944 | 1.41256 | 1.41529 | 1.41687 | 1.41835 | 1.41966 | 1.42103
318.15 K | 1.39114 | 1.39793 | 1.40399 | 1.40796 | 1.41132 | 1.41404 | 1.41575 | 1.41726 | 1.41848 | 1.41967
323.15 K | 1.38914 | 1.39622 | 1.40245 | 1.40652 | 1.41001 | 1.41272 | 1.41456 | 1.41606 | 1.41731 | 1.41831

CCCCCCCC[n+]1ccn(C)c1.F[P-](F)(F)(F)(F)F [1-octyl-3-methylimidazolium hexafluorophosphate] + CCOC(C)=O
refractive index
Conditions | x1 = 0.1056 | x1 = 0.2064 | x1 = 0.308 | x1 = 0.4094 | x1 = 0.4991 | x1 = 0.5916 | x1 = 0.694 | x1 = 0.8121 | x1 = 0.8895 | x1 = 1
293.15 K | 1.38873 | 1.40004 | 1.40816 | 1.41301 | 1.41629 | 1.41842 | 1.4208 | 1.42285 | 1.42447 | 1.42649
298.15 K | 1.38754 | 1.39899 | 1.40705 | 1.41196 | 1.41523 | 1.41771 | 1.41971 | 1.42189 | 1.42354 | 1.42512
303.15 K | 1.38545 | 1.39759 | 1.40552 | 1.41088 | 1.41385 | 1.41655 | 1.41878 | 1.42063 | 1.42188 | 1.42376
308.15 K | 1.38383 | 1.39634 | 1.40439 | 1.40952 | 1.41311 | 1.41557 | 1.41792 | 1.42016 | 1.42072 | 1.4224
313.15 K | 1.38267 | 1.39498 | 1.40318 | 1.40842 | 1.41186 | 1.41447 | 1.41699 | 1.41906 | 1.41956 | 1.42103
318.15 K | 1.38145 | 1.39381 | 1.40208 | 1.40767 | 1.41108 | 1.41348 | 1.41612 | 1.41805 | 1.41852 | 1.41967
323.15 K | 1.38027 | 1.39276 | 1.40106 | 1.40658 | 1.41002 | 1.41266 | 1.41504 | 1.41746 | 1.41744 | 1.41831
